Assay results taken from patent US11787850B2, “Peptidic TGF-beta antagonists” (priority 2015, dated 2023).

System: TGF-β1-induced PAI-1 protein production in A431 cells
Experiment: Western blot for PAI-1 in A431 cells
Assay type: cell-based
Conditions: for inhibition of TGF-β1-induced PAI-1 protein production, peptide treated with DMSO / inhibition of TGF-β1-induced PAI-1 protein production, peptide in Tris left untreated: 100 pM TGF-β1, 18 hours; for inhibition of TGF-β1-induced PAI-1 protein production, peptide treated with DMSO: 0.5% DMSO (FIG. 9); for inhibition of TGF-β1-induced PAI-1 protein production, peptide in Tris left untreated: no DMSO (FIG. 9)
Protocol: FIG. 7 illustrates that the small molecular weight CD109-based peptide P16 (but not P11 or P16-1) inhibits TGF-β1-induced PAI-protein production. A431 cells were treated without (lane 1) or with 100 pM of TGF-β1 (lanes 2-6) in the absence (lane 2) or presence of 10 nM of P11 (11 aa peptide, lane 3), P16 (16 aa peptide, lane 4), P16-1 (scrambled peptide of 16 aa, lane 5) or Tris buffer (buffer, lane 6) for 24 hrs. Cell lysates were analyzed by Western blot for PAI-1 ([…]) protein levels and normalized to GAPDH protein levels (loading control). In the conditions tested, P16 (but not P11) inhibited TGF-β1-induced PAI-1 expression.
A431 cells were treated for 18 hours without (−) or with (+) 100 pM TGF-β1 in the presence or absence of Peptide X or P16. The peptides were previously dissolved in Tris buffer and left untreated or treated with DMSO prior to addition to the cells. Cell lysates were analyzed by Western blot for PAI-1 (plasminogen activator inhibitor-1) protein expression (top panel) and GAPDH served as a loading control (bottom panel). PAI-1 was not detected in untreated cells (lane 1).
A431 cells were grown in 6-well plates to 70-80% confluency and serum-starved overnight. Cells were washed with PBS and treated with or without TGF-β1 in presence or absence of various CD109-based peptides as indicated in the figure legends. Cells were solubilized with 500 μl of lysis buffer (50 mM Tris, pH 7.5, 150 mM NaCl, 50 mM NaF, 50 mM β-glycerophosphate, 1 mM sodium orthovanadate, 1 mM dithiothreitol, 5 mM EDTA, pH 8.0, 1% Nonidet P-40, 10% glycerol, 10 μM phenylmethylsulfonyl fluoride, 200 μg/ml bovine serum albumin, 1 μg/ml leupeptin, […] soybean trypsin inhibitor, 10 μg/ml benzamide, and 2 μg/ml pepstatin) for 30 min at 4° C. with mild agitation. Cell lysates were collected and centrifuged for 10 min at 10,000×g. The supernatants were collected and protein concentrations were determined using the Bio-Rad protein assay kit. Lysates containing equivalent protein concentrations were mixed with 0.2 volume of 5× electrophoresis sample buffer containing 5% β-mercaptoethanol and boiled for 5 min. Samples were resolved on 7.5% SDS-polyacrylamide gels and transferred to nitrocellulose membranes. Membranes were blocked for 3 h in blocking buffer (30 mM Tris, pH 7.5, 150 mM NaCl, and 0.05% (w/v) Tween 20™ (Tris-buffered saline/Tween) containing 5% (w/v) skim milk powder). The blot was incubated overnight at 4° C. with a 1:1000 dilution of anti-PAI-1 antibody (BD Biosciences). Blots were washed with Tris-buffered saline/Tween and incubated for 45 min at room temperature with a 1:5000 dilution of secondary antibody conjugated to horseradish peroxidase (Pierce). Chemiluminescence detection of the immune complexes was performed using the ECL system (Amersham Biosciences) according to the manufacturer's instructions. The membranes were stripped and reprobed with an anti-GAPDH antibody to confirm equal protein loading.
A431 cells were treated without (lane 1) or with 100 pM of TGF-β1 (lanes 2-6) in the absence (lane 2) or presence of 10 nM of P11 (11 aa peptide, lane 3), P16 (16 aa peptide, lane 4), P16-1 (scrambled peptide of 16 aa, lane 5) or Tris buffer (buffer, lane 6) for 24 hrs. Cell lysates were analyzed by Western blot for PAI-1 ([…]) protein levels and normalized to GAPDH protein levels (loading control).
A431 squamous cell carcinoma cells were treated for 18 hours without (−) or with (+) 100 pM TGF-β1 in the presence or absence of Peptide X or P16. The peptides were dissolved in Tris buffer and left untreated or treated with 0.5% DMSO prior to addition to the cells. Cell lysates were analyzed by Western blot for PAI-1 ([…]) protein expression (top panel) and GAPDH served as a loading control (bottom panel).

ETWIWLDTNMGSRIYQ [Peptide P16]
inhibition of TGF-β1-induced PAI-1 protein production, peptide treated with DMSO: did not enhance | inhibition of TGF-β1-induced PAI-1 protein production, peptide in Tris left untreated: inhibited | inhibition of TGF-β1-induced PAI-1 protein production (10 nM peptide, 100 pM TGF-β1, 24 hrs (FIG. 7)): inhibited

LGSSPHVRKHFPETWIWLDTNMGSRIYQEFEVTVPDSITS (Peptide X)
inhibition of TGF-β1-induced PAI-1 protein production, peptide treated with DMSO: inhibited | inhibition of TGF-β1-induced PAI-1 protein production, peptide in Tris left untreated: did not
